Assay results taken from patent publication US20230017045A1, “PYRIDINE AND PYRIMIDINE CARBOXYLATE HERBICIDES AND METHODS OF USE THEREOF” (Dow AgroSciences LLC, priority 2017, published 2023).
Read-outs that look alike come from different tables or passages of the source.

System: test plant species
Experiment: Post-emergent herbicidal activity test (greenhouse, foliar spray, visual growth reduction)
Format: in vivo
Conditions: post-emergence, 336 h, 140 g ai/ha
Protocol: Post-emergent Test: Seeds or nutlets of the desired test plant species were planted in Sun Gro Metro-Mix® 360 planting mixture, which typically has a pH of 6.0 to 6.8 and an organic matter content of about 30 percent, in plastic pots with a surface area of 64 square centimeters. In some aspects, to ensure good germination and healthy plants, a fungicide treatment and/or other chemical or physical treatment was applied. The plants were grown for 7-21 d in a greenhouse with an approximate 15 h photoperiod which was maintained at 23-29° C. during the day and 22-28° C. during the night. Nutrients and water were added on a regular basis and supplemental lighting was provided with overhead metal halide 1000-Watt lamps as necessary. Plants were used for testing when they reached the first or second true leaf stage. A weighed amount, determined by the highest rate to be tested, of each test compound was placed in a 25 mL glass vial and was dissolved in 4 mL of a 97:3 v/v mixture of acetone and DMSO to obtain concentrated stock solutions. […] The concentrated stock solutions obtained were diluted with 20 mL of an aqueous mixture containing acetone, water, isopropyl alcohol, DMSO, […] crop oil concentrate, and X-77 surfactant in a 48.5:39:10:1.5:1.0:0.02 v/v ratio to obtain spray solutions containing the application rate. Compound requirements are based upon a 12 mL application volume at a rate of 187 liters per hectare (L/ha). Formulated compounds were applied to the plant material with an overhead Mandel track sprayer equipped with […] nozzles calibrated to deliver 187 L/ha over an application area of 0.64 square meters at a spray height of 18 inches (43 cm) above the average plant canopy height. Control plants were sprayed in the same manner with the solvent blank. The treated plants and control plants were placed in a greenhouse as described above and watered by subirrigation to prevent wash-off of the test compounds. After 14 d, the condition of the test plants as compared with that of the nontreated and control plants was determined visually and scored on a scale of 0 to 100 percent where 0 corresponds to no injury and 100 corresponds to complete control. In the reporting of the results, Table A: Percent Growth Reduction Conversion Table was used.

[1] = ECHCG: barnyardgrass (Echinochloa crus-galli), 14 days after application, read-out: Visual Growth Reduction (%) 14 Days After Application, ECHCG
[2] = IPOHE: ivy-leaf morning glory (Ipomoea hederacea), 14 days after application, read-out: Visual Growth Reduction (%) 14 Days After Application, IPOHE
[3] = KCHSC: kochia (Bassia scoparia), 14 days after application, read-out: Visual Growth Reduction (%) 14 Days After Application, KCHSC
[4] = ORYSA: rice (Oryza sativa), 14 days after application, read-out: Visual Growth Reduction (%) 14 Days After Application, ORYSA
[5] = SETFA: giant foxtail (Setaria faberi), 14 days after application, read-out: Visual Growth Reduction (%) 14 Days After Application, SETFA
[6] = SORVU: grain sorghum (Sorghum vulgare), 14 days after application, read-out: Visual Growth Reduction (%) 14 Days After Application, SORVU
[7] = STEME: common chickweed (Stellaria media), 14 days after application, read-out: Visual Growth Reduction (%) 14 Days After Application, STEME
[8] = TRZAS: wheat, spring (Triticum aestivum), 14 days after application, read-out: Visual Growth Reduction (%) 14 Days After Application, TRZAS
[9] = blackgrass (Alopecurus myosuroides), 14 Days After Application, read-out: Visual Growth Reduction (%) ALOMY
[10] = canada thistle (Cirsium arvense), 14 Days After Application, read-out: Visual Growth Reduction (%) CIRAR
[11] = crabgrass (Digitaria sanguinalis), 14 Days After Application, read-out: Visual Growth Reduction (%) DIGSA
[12] = lambsquarters (Chenopodium album), 14 Days After Application, read-out: Visual Growth Reduction (%) CHEAL
[13] = redroot pigweed (Amaranthus retroflexus), 14 Days After Application, read-out: Visual Growth Reduction (%) AMARE
[14] = wild oat (Avena fatua), 14 Days After Application, read-out: Visual Growth Reduction (%) AVEFA
[15] = yellow nutsedge (Cyperus esculentus), 14 Days After Application, read-out: Visual Growth Reduction (%) CYPES
[16] = ALOMY: blackgrass (Alopecurus myosuroides), 14 days after application, read-out: Visual Growth Reduction (%) 14 Days After Application, ALOMY
[17] = AMARE: redroot pigweed (Amaranthus retroflexus), 14 days after application, read-out: Visual Growth Reduction (%) 14 Days After Application, AMARE
[18] = AVEFA: wild oat (Avena fatua), 14 days after application, read-out: Visual Growth Reduction (%) 14 Days After Application, AVEFA
[19] = CHEAL: lambsquarters (Chenopodium album), 14 days after application, read-out: Visual Growth Reduction (%) 14 Days After Application, CHEAL
[20] = CIRAR: canada thistle (Cirsium arvense), 14 days after application, read-out: Visual Growth Reduction (%) 14 Days After Application, CIRAR
[21] = CYPES: yellow nutsedge (Cyperus esculentus), 14 days after application, read-out: Visual Growth Reduction (%) 14 Days After Application, CYPES
[22] = DIGSA: crabgrass (Digitaria sanguinalis), 14 days after application, read-out: Visual Growth Reduction (%) 14 Days After Application, DIGSA

Row | SMILES | pest or weed control at 140 g/ha [1] [%] | pest or weed control at 140 g/ha [2] [%] | pest or weed control at 140 g/ha [3] [%] | pest or weed control at 140 g/ha [4] [%] | pest or weed control at 140 g/ha [5] [%] | pest or weed control at 140 g/ha [6] [%] | pest or weed control at 140 g/ha [7] [%] | pest or weed control at 140 g/ha [8] [%] | pest or weed control at 140 g/ha [9] [%] | pest or weed control at 140 g/ha [10] [%] | pest or weed control at 140 g/ha [11] [%] | pest or weed control at 140 g/ha [12] [%] | pest or weed control at 140 g/ha [13] [%] | pest or weed control at 140 g/ha [14] [%] | pest or weed control at 140 g/ha [15] [%] | further results
1 | COC(=O)c1nc(-c2ccc(C3(C#N)CC3)cc2Cl)c(Cl)cc1Cl [F238, Methyl 3,5-dichloro-6-(2-chloro-4-(1-cyanocyclopropyl)phenyl)picolinate] | 0 to 29 | 75 to 84 | 0 to 29 | 0 to 29 | 45 to 59 | 60 to 74 | 0 to 29 | 0 to 29 | 0 to 29 | 60 to 74 | 60 to 74 | 95 to 100 | 45 to 59 | 0 to 29 | 0 to 29 | 
2 | COC(=O)c1nc(-c2ccc(C)cc2Cl)ccc1Cl [F60, Methyl 3-chloro-6-(2-chloro-4-methylphenyl) picolinate] | 0 to 29 | 45 to 59 | 0 to 29 |  | 0 to 29 | 0 to 29 | 0 to 29 |  |  |  |  |  |  |  |  | pest or weed control at 140 g/ha [16]: 0 to 29%; pest or weed control at 140 g/ha [17]: 60 to 74%; pest or weed control at 140 g/ha [18]: 0 to 29%; pest or weed control at 140 g/ha [19]: 0 to 29%; pest or weed control at 140 g/ha [20]: 0 to 29%; pest or weed control at 140 g/ha [21]: 0 to 29%; pest or weed control at 140 g/ha [22]: 0 to 29%
3 | COC(=O)c1nc(-c2ccc(Cl)c(C(F)F)c2Cl)ccc1Cl [F281, Methyl 3-chloro-6-(2,4-dichloro-3-(difluoromethyl)phenyl)picolinate] | 0 to 29 | 85 to 94 | 0 to 29 | 0 to 29 | 30 to 44 | 85 to 94 | 0 to 29 | 0 to 29 | 0 to 29 | 0 to 29 | 0 to 29 | 85 to 94 | 75 to 84 | 0 to 29 | 0 to 29 | 
4 | COC(=O)c1nc(-c2ccc(C(F)(F)F)cc2Cl)c(SC)cc1Cl [F7, methyl 3-chloro-6-(2-chloro-4-(trifluoromethyl)phenyl)-5-(methylthio)picolinate] |  |  |  |  |  |  |  |  |  |  |  |  |  |  |  | pest or weed control at 140 g/ha [16]: 0 to 29%; pest or weed control at 140 g/ha [17]: 0 to 29%; pest or weed control at 140 g/ha [18]: 0 to 29%; pest or weed control at 140 g/ha [19]: 0 to 29%; pest or weed control at 140 g/ha [20]: 0 to 29%; pest or weed control at 140 g/ha [21]: 0 to 29%; pest or weed control at 140 g/ha [22]: 0 to 29%; pest or weed control at 140 g/ha (barnyardgrass (Echinochloa crus-galli), 14 Days After Application, read-out: Visual Growth Reduction (%) ECHCG): 0 to 29%; pest or weed control at 140 g/ha (common chickweed (Stellaria media), 14 Days After Application, read-out: Visual Growth Reduction (%) STEME): 0 to 29%; pest or weed control at 140 g/ha (giant foxtail (Setaria faberi), 14 Days After Application, read-out: Visual Growth Reduction (%) SETFA): 0 to 29%; pest or weed control at 140 g/ha (ivy-leaf morning glory (Ipomoea hederacea), 14 Days After Application, read-out: Visual Growth Reduction (%) IPOHE): 0 to 29%; pest or weed control at 140 g/ha (johnsongrass (Sorghum vulgare), 14 Days After Application, read-out: Visual Growth Reduction (%) SORVU): 0 to 29%; pest or weed control at 140 g/ha (kochia (Bassia scoparia), 14 Days After Application, read-out: Visual Growth Reduction (%) KCHSC): 0 to 29%; pest or weed control at 140 g/ha (rice (Oryza sativa), 14 Days After Application, read-out: Visual Growth Reduction (%) ORYSA): 0 to 29%; pest or weed control at 140 g/ha (wheat, spring (Triticum aestivum), 14 Days After Application, read-out: Visual Growth Reduction (%) TRZAS): 0 to 29%
5 | O=C(O)c1nc(-c2ccc(C(F)(F)F)cc2Cl)c(F)cc1Cl [F352, 3-chloro-6-(2-chloro-4-(trifluoromethyl)phenyl)-5-fluoropicolinic acid] | 95 to 100 | 95 to 100 | 85 to 94 | 85 to 94 | 95 to 100 | 95 to 100 | 60 to 74 | 95 to 100 | 75 to 84 | 95 to 100 | 95 to 100 | 95 to 100 | 95 to 100 | 85 to 94 | 0 to 29 | 
6 | COC(=O)c1nc(-c2ccc(C(F)(F)F)c(Cl)c2)c(F)cc1Cl [F305, Methyl 3-chloro-6-(3-chloro-4-(trifluoromethyl)phenyl)-5-fluoropicolinate] | 0 to 29 | 95 to 100 | 0 to 29 | 0 to 29 | 0 to 29 | 75 to 84 | 0 to 29 | 0 to 29 | 0 to 29 | 0 to 29 | 85 to 94 | 45 to 59 | 30 to 44 | 0 to 29 | 45 to 59 | 
7 | COC(=O)c1nc(-c2c(C=O)cc(OC)c(O)c2Cl)ccc1Cl [F228, Methyl 3-chloro-6-(2-chloro-6-formyl-3-hydroxy-4-methoxyphenyl) picolinate] | 0 to 29 | 0 to 29 | 0 to 29 | 0 to 29 | 0 to 29 | 0 to 29 | 0 to 29 | 0 to 29 | 0 to 29 | 0 to 29 | 0 to 29 | 0 to 29 | 0 to 29 | 0 to 29 | 0 to 29 | 
